Source: the supplement of paper PMC5662764
± gives the standard deviation of the averaged measurements.

Assays:
Assay in all cases: normalised growth rate inhibition (GR value) relative to DMSO control (GR (1 = untreated growth, 0 = cytostasis, <0 = cytotoxic)); higher = less growth inhibition
Conditions in all cases: 72 h
MCF7 = test system: MCF7
Description: (§1)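 Breast cancer cell lines (BT-20, Hs 578T, MCF 10A, MCF7, MDA-MB-231, SK-BR-3) were plated in 384-well plates and treated 24 h later with drugs at six concentrations (0.04-10 µM). Viable cells were counted by Hoechst/dead-cell-stain imaging at 0 and 72 h. Counts were normalised to DMSO controls on the same plate to give the relative cell count and the growth-rate inhibition (GR) value; technical plate triplicates were averaged for each biological replicate.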

MDAMB231 = test system: MDAMB231
Description: as §1

HS578T = test system: HS578T
Description: as §1

MCF10A = test system: MCF10A
Description: as §1

SKBR3 = test system: SKBR3
Description: as §1

BT20 = test system: BT20
Description: as §1

Row | SMILES | normalised growth rate inhibition (MCF7; 0.04 µM) | normalised growth rate inhibition (MCF7; 0.12 µM) | normalised growth rate inhibition (MCF7; 0.37 µM) | normalised growth rate inhibition (MCF7; 1.11 µM) | normalised growth rate inhibition (MCF7; 3.33 µM) | normalised growth rate inhibition (MCF7; 10 µM) | normalised growth rate inhibition (MDAMB231; 0.04 µM) | normalised growth rate inhibition (MDAMB231; 0.12 µM) | normalised growth rate inhibition (MDAMB231; 0.37 µM) | normalised growth rate inhibition (MDAMB231; 1.11 µM) | normalised growth rate inhibition (MDAMB231; 3.33 µM) | normalised growth rate inhibition (MDAMB231; 10 µM) | normalised growth rate inhibition (HS578T; 0.04 µM) | normalised growth rate inhibition (HS578T; 0.12 µM) | normalised growth rate inhibition (HS578T; 0.37 µM) | normalised growth rate inhibition (HS578T; 1.11 µM) | normalised growth rate inhibition (HS578T; 3.33 µM) | normalised growth rate inhibition (HS578T; 10 µM) | normalised growth rate inhibition (MCF10A; 0.04 µM) | normalised growth rate inhibition (MCF10A; 0.12 µM) | normalised growth rate inhibition (MCF10A; 0.37 µM) | normalised growth rate inhibition (MCF10A; 1.11 µM) | normalised growth rate inhibition (MCF10A; 3.33 µM) | normalised growth rate inhibition (MCF10A; 10 µM) | normalised growth rate inhibition (SKBR3; 0.04 µM) | normalised growth rate inhibition (SKBR3; 0.12 µM) | normalised growth rate inhibition (SKBR3; 0.37 µM) | normalised growth rate inhibition (SKBR3; 1.11 µM) | normalised growth rate inhibition (SKBR3; 3.33 µM) | normalised growth rate inhibition (SKBR3; 10 µM) | normalised growth rate inhibition (BT20; 0.04 µM) | normalised growth rate inhibition (BT20; 0.12 µM) | normalised growth rate inhibition (BT20; 0.37 µM) | normalised growth rate inhibition (BT20; 1.11 µM) | normalised growth rate inhibition (BT20; 3.33 µM) | normalised growth rate inhibition (BT20; 10 µM)
1 | CNC(=O)c1ccc(Nc2cc(Nc3ccccc3S(=O)(=O)C(C)C)c3cc[nH]c3n2)nc1 [HG-5-113-01] | 0.866 ± 0.069 | 0.718 ± 0.18 | 0.399 ± 0.21 | 0.163 ± 0.11 | 0.064 ± 0.018 | -0.222 ± 0.1 | 0.969 ± 0.058 | 0.888 ± 0.068 | 0.705 ± 0.12 | 0.35 ± 0.19 | 0.123 ± 0.089 | -0.0611 ± 0.15 | 0.9393 ± 0.0065 | 0.9 ± 0.013 | 0.77 ± 0.043 | 0.443 ± 0.17 | 0.109 ± 0.13 | -0.0329 ± 0.066 | 0.968 ± 0.013 | 0.92 ± 0.036 | 0.851 ± 0.034 | 0.713 ± 0.031 | 0.312 ± 0.16 | -0.0419 ± 0.062 | 0.875 ± 0.062 | 0.798 ± 0.16 | 0.514 ± 0.3 | 0.0629 ± 0.15 | -0.121 ± 0.069 | -0.148 ± 0.12 | 0.953 ± 0.041 | 0.8835 ± 0.0077 | 0.785 ± 0.069 | 0.601 ± 0.057 | 0.295 ± 0.051 | -0.158 ± 0.11
2 | COc1cc(OC)cc(-c2ccc3ncc4ccc(=O)n(-c5ccc(N6CCNCC6)c(C(F)(F)F)c5)c4c3c2)c1 [JW-7-24-1] | 0.607 ± 0.09 | 0.551 ± 0.07 | 0.373 ± 0.12 | 0.236 ± 0.08 | 0.139 ± 0.078 | -0.135 ± 0.0036 | 0.823 ± 0.12 | 0.859 ± 0.088 | 0.754 ± 0.09 | 0.624 ± 0.12 | 0.543 ± 0.11 | -0.122 ± 0.17 | 0.929 ± 0.017 | 0.89 ± 0.039 | 0.765 ± 0.034 | 0.581 ± 0.029 | 0.384 ± 0.037 | -0.198 ± 0.14 | 0.986 ± 0.034 | 0.986 ± 0.044 | 0.952 ± 0.069 | 0.911 ± 0.11 | 0.84 ± 0.15 | 0.176 ± 0.17 | 0.615 ± 0.034 | 0.695 ± 0.042 | 0.591 ± 0.047 | 0.457 ± 0.038 | 0.273 ± 0.041 | -0.224 ± 0.14 | 0.797 ± 0.057 | 0.876 ± 0.078 | 0.822 ± 0.08 | 0.755 ± 0.18 | 0.61 ± 0.25 | -0.0316 ± 0.17
3 | NC1(c2ccc(-c3nc4ccn5c(=O)[nH]nc5c4cc3-c3ccccc3)cc2)CCC1 [MK-2206] | 0.616 ± 0.12 | 0.502 ± 0.086 | 0.278 ± 0.096 | 0.291 ± 0.12 | 0.176 ± 0.093 | -0.104 ± 0.14 | 0.968 ± 0.039 | 0.904 ± 0.039 | 0.821 ± 0.05 | 0.806 ± 0.061 | 0.757 ± 0.051 | 0.391 ± 0.35 | 0.8934 ± 0.0036 | 0.803 ± 0.035 | 0.577 ± 0.21 | 0.665 ± 0.064 | 0.638 ± 0.053 | 0.458 ± 0.29 | 0.99 ± 0.038 | 0.972 ± 0.036 | 0.705 ± 0.22 | 0.892 ± 0.067 | 0.833 ± 0.082 | 0.429 ± 0.09 | 0.761 ± 0.12 | 0.603 ± 0.084 | 0.484 ± 0.06 | 0.429 ± 0.048 | 0.283 ± 0.059 | -0.0652 ± 0.015 | 0.974 ± 0.087 | 0.902 ± 0.12 | 0.678 ± 0.13 | 0.583 ± 0.17 | 0.453 ± 0.2 | 0.08 ± 0.29
